This note sets out measurements from patent US11180444B2, “Polyimino ketoaldehydes” (NOVUM SPERO LTD., priority 2017, dated 2021).

Test [1] has as its system Avian Pathogenic Escherichia coli multi-resistant strain. Kind of test: Inhibition zones, disc test. It is filed as cell-based.
The test system of test [2] is gram-positive and gram-negative bacteria including multi-resistant bacteria. Kind of test: In vitro testing of antibacterial properties. It is filed as cell-based.

Entries after “also recorded” stand apart in the source; their conditions may differ.

In test [1] (Escherichia coli, 300 μg per disc), `Cc1cc(C)nc(NS(=O)(=O)c2ccc(N)cc2)n1` [Sulfadimidine, reference compound] showed a zone of inhibition at 300 µg/disc of 0 mm.

On to “1-amino-tetratriacontyl-henicosa-20-on-21-al [CM]”, for which the values for the Inhibition zone in test [1] (10 μL of solution (350 μg/1 μL) per disc), in test [1] (15 μL of solution (350 μg/1 μL) per disc) and in test [1] (20 μL of solution (350 μg/1 μL) per disc) were 8 mm, 9 mm and 10 mm, respectively. Also, the “Inhibitory activity against the strain (in words)” value in test [1] (compared with antibiotics in their standard dose) is reported as “has an effect on the inhibition; also recorded: shows inhibitory activity”. The “Antibacterial properties (in words)” value in test [2] was “shows antibacterial properties”.

Take “Trimethoprim sulphate [reference compound]”: the Inhibition zone in test [1] (1.25 μg + 23.75 μg per disc) came out at 0 mm.

With `CN(C)[C@@H]1C(O)=C(C(N)=O)C(=O)[C@@]2(O)C(O)=C3C(=O)c4c(O)cccc4[C@@](C)(O)[C@H]3C[C@@H]12` [Tetracycline, reference compound], the zone of inhibition at 30 µg/disc in test [1] (Escherichia coli, read-out: Inhibition zone) turned out to be 0 mm.

As for `CC1(C)S[C@@H]2[C@H](NC(=O)[C@H](N)c3ccc(O)cc3)C(=O)N2[C@H]1C(=O)O` [Amoxicillin, reference compound], the zone of inhibition at 25 µg/disc in test [1] (Escherichia coli, 25 μg per disc) worked out at 0 mm.
